# From the NIST ThermoML archive (doi:10.1021/je049572f)
# Where “and” joins values, the source holds several entries; their conditions need not be identical. Identical values can stand only once. Numbers after ± are expanded uncertainties.
# What was measured:
# [1] = 101.33 kPa, Liquid
# [2] = xn = mol fraction of the nth substance listed; details: 101.33 kPa, Liquid
SMILES,mass density ([1]; 303.15 K),viscosity ([1]; 303.15 K),mass density ([1]; 313.15 K),viscosity ([1]; 313.15 K),mass density ([1]; 323.15 K),viscosity ([1]; 323.15 K),mass density ([1]; 333.15 K),viscosity ([1]; 333.15 K),mass density ([1]; 343.15 K),viscosity ([1]; 343.15 K),mass density ([1]; 353.15 K),viscosity ([1]; 353.15 K),further results
CN1CCCC1=O [N-methylpyrrolidone],1023.47 ± 3.2 kg/m3,1.554 ± 0.053 mPa·s,1014.55 ± 3.1 kg/m3,1.332 ± 0.046 mPa·s,1005.66 ± 3 kg/m3,1.16 ± 0.04 mPa·s,996.71 ± 2.9 kg/m3,1.022 ± 0.036 mPa·s,987.75 ± 3 kg/m3,0.908 ± 0.032 mPa·s,978.76 ± 3 kg/m3,0.813 ± 0.029 mPa·s,
CN1CCCC1=O [N-methylpyrrolidone] + CCc1ccccc1,,,,,,,,,,,,,"mass density ([2]; 303.15 K, x2 = 0): 1023.47 ± 3.2 kg/m3; viscosity ([2]; 303.15 K, x2 = 0): 1.554 ± 0.053 mPa·s; mass density ([2]; 313.15 K, x2 = 0): 1014.55 ± 3.1 kg/m3; viscosity ([2]; 313.15 K, x2 = 0): 1.332 ± 0.046 mPa·s; mass density ([2]; 323.15 K, x2 = 0): 1005.66 ± 3 kg/m3; viscosity ([2]; 323.15 K, x2 = 0): 1.16 ± 0.04 mPa·s; mass density ([2]; 333.15 K, x2 = 0): 996.71 ± 2.9 kg/m3; viscosity ([2]; 333.15 K, x2 = 0): 1.022 ± 0.036 mPa·s; mass density ([2]; 343.15 K, x2 = 0): 987.75 ± 3 kg/m3; viscosity ([2]; 343.15 K, x2 = 0): 0.908 ± 0.032 mPa·s; mass density ([2]; 353.15 K, x2 = 0): 978.76 ± 3 kg/m3; viscosity ([2]; 353.15 K, x2 = 0): 0.813 ± 0.029 mPa·s"
CCc1ccccc1 [ethylbenzene],859.95 ± 3.6 kg/m3,0.598 ± 0.016 mPa·s,851.14 ± 3.7 kg/m3,0.537 ± 0.015 mPa·s,842.3 ± 3.8 kg/m3 and 842.27 ± 3.8 kg/m3,0.483 ± 0.014 mPa·s,833.34 ± 4 kg/m3,0.437 ± 0.013 mPa·s,824.26 ± 4.1 kg/m3,0.397 ± 0.012 mPa·s,815.18 ± 4.3 kg/m3,0.366 ± 0.012 mPa·s,
CCc1ccccc1 [ethylbenzene] + O=S1(=O)CCCC1,,,,,,,,,,,,,"mass density ([2]; 303.15 K, x1 = 1): 859.95 ± 3.6 kg/m3; viscosity ([2]; 303.15 K, x1 = 1): 0.598 ± 0.016 mPa·s; mass density ([2]; 313.15 K, x1 = 1): 851.14 ± 3.7 kg/m3; viscosity ([2]; 313.15 K, x1 = 1): 0.537 ± 0.015 mPa·s; mass density ([2]; 323.15 K, x1 = 1): 842.27 ± 3.8 kg/m3; viscosity ([2]; 323.15 K, x1 = 1): 0.483 ± 0.014 mPa·s; mass density ([2]; 333.15 K, x1 = 1): 833.34 ± 4 kg/m3; viscosity ([2]; 333.15 K, x1 = 1): 0.437 ± 0.013 mPa·s; mass density ([2]; 343.15 K, x1 = 1): 824.26 ± 4.1 kg/m3; viscosity ([2]; 343.15 K, x1 = 1): 0.397 ± 0.012 mPa·s; mass density ([2]; 353.15 K, x1 = 1): 815.18 ± 4.3 kg/m3; viscosity ([2]; 353.15 K, x1 = 1): 0.366 ± 0.012 mPa·s"
CCCCCCCC [octane],695.79 ± 3.1 kg/m3,0.472 ± 0.014 mPa·s,687.59 ± 3.2 kg/m3,0.422 ± 0.013 mPa·s,679.34 ± 3.2 kg/m3,0.38 ± 0.012 mPa·s,670.98 ± 3.3 kg/m3,0.343 ± 0.011 mPa·s,662.59 ± 3.4 kg/m3,0.314 ± 0.011 mPa·s,654.05 ± 3.5 kg/m3,0.287 ± 0.01 mPa·s,mass density ([1]; 293.15 K): 703.88 ± 3 kg/m3; viscosity ([1]; 293.15 K): 0.534 ± 0.015 mPa·s; mass density ([1]; 298.15 K): 699.83 ± 3.1 kg/m3; viscosity ([1]; 298.15 K): 0.501 ± 0.014 mPa·s; mass density ([1]; 363.15 K): 645.68 ± 3.5 kg/m3; viscosity ([1]; 363.15 K): 0.261 ± 0.01 mPa·s
CCCCCCCC [octane] + C=Cc1ccccc1,,,,,,,,,,,,,"mass density ([2]; 293.15 K, x2 = 0): 703.88 ± 3 kg/m3; viscosity ([2]; 293.15 K, x2 = 0): 0.534 ± 0.015 mPa·s; mass density ([2]; 298.15 K, x2 = 0): 699.83 ± 3.1 kg/m3; viscosity ([2]; 298.15 K, x2 = 0): 0.501 ± 0.014 mPa·s; mass density ([2]; 303.15 K, x2 = 0): 695.79 ± 3.1 kg/m3; viscosity ([2]; 303.15 K, x2 = 0): 0.472 ± 0.014 mPa·s; mass density ([2]; 313.15 K, x2 = 0): 687.59 ± 3.2 kg/m3; viscosity ([2]; 313.15 K, x2 = 0): 0.422 ± 0.013 mPa·s; mass density ([2]; 323.15 K, x2 = 0): 679.34 ± 3.2 kg/m3; viscosity ([2]; 323.15 K, x2 = 0): 0.38 ± 0.012 mPa·s; mass density ([2]; 333.15 K, x2 = 0): 670.98 ± 3.3 kg/m3; viscosity ([2]; 333.15 K, x2 = 0): 0.343 ± 0.011 mPa·s; mass density ([2]; 343.15 K, x2 = 0): 662.59 ± 3.4 kg/m3; viscosity ([2]; 343.15 K, x2 = 0): 0.314 ± 0.011 mPa·s; mass density ([2]; 353.15 K, x2 = 0): 654.05 ± 3.5 kg/m3; viscosity ([2]; 353.15 K, x2 = 0): 0.287 ± 0.01 mPa·s; mass density ([2]; 363.15 K, x2 = 0): 645.68 ± 3.5 kg/m3; viscosity ([2]; 363.15 K, x2 = 0): 0.261 ± 0.01 mPa·s"
C=Cc1ccccc1 [styrene],897.45 ± 1.5 kg/m3,0.654 ± 0.017 mPa·s,888.53 ± 1.6 kg/m3,0.577 ± 0.016 mPa·s,879.62 ± 1.6 kg/m3,0.513 ± 0.014 mPa·s,870.64 ± 1.7 kg/m3,0.462 ± 0.013 mPa·s,861.72 ± 1.8 kg/m3,0.419 ± 0.013 mPa·s,852.68 ± 1.9 kg/m3,0.381 ± 0.012 mPa·s,mass density ([1]; 293.15 K): 906.29 ± 1.4 kg/m3; viscosity ([1]; 293.15 K): 0.749 ± 0.019 mPa·s; mass density ([1]; 298.15 K): 901.86 ± 1.4 kg/m3; viscosity ([1]; 298.15 K): 0.699 ± 0.018 mPa·s; mass density ([1]; 363.15 K): 843.99 ± 1.9 kg/m3; viscosity ([1]; 363.15 K): 0.349 ± 0.011 mPa·s
O=S1(=O)CCCC1 [sulfolane],1260.8 ± 6.4 kg/m3,10.07 ± 0.32 mPa·s,1251.9 ± 6.3 kg/m3,7.808 ± 0.25 mPa·s,1243.36 ± 6.2 kg/m3,6.194 ± 0.2 mPa·s,1234.62 ± 6 kg/m3,5.009 ± 0.17 mPa·s,1225.92 ± 5.9 kg/m3,4.126 ± 0.14 mPa·s,1216.8 ± 5.8 kg/m3,3.44 ± 0.12 mPa·s,
